Measured values: US11026944B2, “Compositions and methods for treating insomnia” (Eisai R&D Management Co., Ltd., priority 2014, dated 2021)

Tested on: subjects with insomnia
Assay: 201 Study: polysomnography (SE, LPS, WASO) dose-response
Format: in vivo, human
Description: This was a multi-center, randomized, double-blind, adaptive design, dose-response study in subjects with insomnia. Subjects were randomized to 1 of 6 doses of compound A (1 mg, 2.5 mg, 5 mg, 10 mg, 15 mg and 25 mg) or placebo.
The study had 2 phases: Prerandomization and Randomization. The Prerandomization Phase lasted up to 21 days and consisted of a Screening Period (Days-21 to -2) and a Baseline Period (Day-1). After the Baseline Period, all eligible subjects were randomized in a double-blind manner to receive compound A or placebo for 15 nights during the Treatment Period (Days 1 to 15). All subjects then received placebo in a single-blind manner, for 2 nights (Days 16 to 17) during the Rebound Insomnia Assessment Period (Days 16 to 18). […] All subjects came to the clinic for screening procedures. During the Screening Period, subjects completed the Sleep Diary each day. Polysomnographic sleep was measured during the Screening Period on 2 consecutive nights between Day-9 and Day-3. The 8-hour polysomnograms (PSGs) were started at the median habitual bedtime calculated from responses on the Sleep Diary, which were completed for 7 days before the first PSG night. These recordings served as both eligibility screening PSGs and as Baseline PSGs. Subjects could leave the clinic between the screening/Baseline PSG nights.
All subjects returned to the clinic on Day-1 for Baseline Period procedures. They remained in the clinic until Day 3. Morning assessments on Day 1 provided the Baseline values for the KSS, the Digit Symbol Substitution Test (DSST), and the Reaction Time Index (RTI). Assessments at 6 hours after waketime provided the Baseline values for the Waking Function Battery (WFB), and the Profile of Mood States-Brief (POMS-B). Subjects were then randomized to receive 1 of 6 doses of compound A or placebo for the next 15 days. Study drugs were tablets containing compound A-matched placebo or compound A of 1 mg, 2.5 mg, 5 mg, or 10 mg and to be ingested 30 minutes before the median habitual bedtime calculated from their Sleep Diary responses during the Screening Period. An 8-hour PSG, starting at the same bedtime as used for the screening and Baseline PSG nights, was recorded on the first 2 treatment nights (Days 1 and 2). The Sleep Diary continued to be completed each day in the clinic, and assessments of insomnia severity (ISI), next-day residual effects (KSS, DSST, and RTI) were conducted while subjects were in the clinic. On specified study days, plasma concentrations of compound A were assessed while subjects were in the clinic in the morning after awakening and at trough just before dosing.
Subjects continued to take compound A or placebo 30 minutes before their anticipated, self-selected bedtime and continued to complete the Sleep Diary each day while at home during the Treatment Period. On Day 14 of the Treatment Period, subjects returned to the clinic. They remained in the clinic for 4 nights and the intervening days until Day 18. Eight-hour PSGs were recorded each night in the clinic, to start at the median habitual bedtime calculated from responses on the Sleep Diary completed on Days 3 to 13. The Sleep Diary continued to be completed each day in the clinic, and the ISI, KSS, DSST, RTI, were administered at prespecified time points during the daytime hours.
In Table 5, “Baseline” was defined as the mean of the screening PSG 1 and 2, within −9 to −3 days of randomization. “LS Means Diff” refers to the differences between LS Means of Placebo and each compound A dose, “95% CI” means to 95% CI of LS Means Diff. “p-value” was analyzed using analysis of covariance (ANCOVA) with baseline as a covariate.
In Table 7, “Baseline” was defined as the mean of the screening PSG 1 and 2, within −9 to −3 days of randomization. “p-value” was analyzed using analysis of covariance (ANCOVA) with baseline as a covariate.
In Table 8, “Baseline” was defined as the mean of the screening PSG 1 and 2, within −9 to −3 days of randomization. […]

[1] = Days 14 & 15 minus Days 1 & 2, 1 mg nightly
[2] = Days 14 & 15 minus Days 1 & 2, 2.5 mg nightly
[3] = Days 14 & 15 minus Days 1 & 2, 5 mg nightly
[4] = Days 14 & 15 minus Days 1 & 2, 10 mg nightly
[5] = Days 14 & 15 minus Days 1 & 2, 15 mg nightly
[6] = Days 14 & 15 minus Days 1 & 2, 25 mg nightly

Cc1ncc(OC[C@@]2(c3cccc(F)c3)C[C@H]2C(=O)Nc2ccc(F)cn2)c(C)n1 [Compound A, (1R,2 S)-2-(((2,4-dimethylpyrimidin-5-yl)oxy)methyl)-2-(3-fluorophenyl)-N-(5-fluoropyridin-2-yl) cyclopropanecarboxamide]
Change from Baseline in LPS, Mean of Days 1 & 2: Geometric Mean Ratio (compound A/placebo) (1 mg nightly): 0.77
Change from Baseline in LPS, Mean of Days 14 & 15: Geometric Mean Ratio (compound A /placebo) (1 mg nightly): 0.73
Change from Baseline in SE, Mean of Days 1 & 2: LS Means Diff vs placebo (1 mg nightly): 4.57%
Change from Baseline in SE, Mean of Days 1 & 2: Mean (1 mg nightly): 21.1%
Change from Baseline in SE, Mean of Days 14 & 15: LS Means Diff vs placebo (1 mg nightly): 0.34%
Change from Baseline in SE, Mean of Days 14 & 15: Mean (1 mg nightly): 17.5%
Change from Baseline in WASO, Mean of Days 1 & 2: LS Means Diff vs placebo (1 mg nightly): -11.1 min
Change from Baseline in WASO, Mean of Days 1 & 2: Mean (1 mg nightly): -60.9 min
Change from Baseline in WASO, Mean of Days 14 & 15: LS Means Diff vs placebo (1 mg nightly): 5.7 min
Change from Baseline in WASO, Mean of Days 14 & 15: Mean (1 mg nightly): -43.6 min
LPS geometric mean ratio vs placebo, significance (1 mg, Mean of Days 1/2): not statistically significant
Change from Baseline in LPS, Mean of Days 1 & 2: Geometric Mean Ratio (compound A/placebo) (2.5 mg nightly): 0.55
Change from Baseline in LPS, Mean of Days 14 & 15: Geometric Mean Ratio (compound A /placebo) (2.5 mg nightly): 0.49
Change from Baseline in SE, Mean of Days 1 & 2: LS Means Diff vs placebo (2.5 mg nightly): 4.44%
Change from Baseline in SE, Mean of Days 1 & 2: Mean (2.5 mg nightly): 21.3%
Change from Baseline in SE, Mean of Days 14 & 15: LS Means Diff vs placebo (2.5 mg nightly): 3.94%
Change from Baseline in SE, Mean of Days 14 & 15: Mean (2.5 mg nightly): 20.7%
Change from Baseline in WASO, Mean of Days 1 & 2: LS Means Diff vs placebo (2.5 mg nightly): -2.3 min
Change from Baseline in WASO, Mean of Days 1 & 2: Mean (2.5 mg nightly): -51.1 min
Change from Baseline in WASO, Mean of Days 14 & 15: LS Means Diff vs placebo (2.5 mg nightly): -2.3 min
Change from Baseline in WASO, Mean of Days 14 & 15: Mean (2.5 mg nightly): -48.9 min
Change from Baseline in LPS, Mean of Days 1 & 2: Geometric Mean Ratio (compound A/placebo) (5 mg nightly): 0.60
Change from Baseline in LPS, Mean of Days 14 & 15: Geometric Mean Ratio (compound A /placebo) (5 mg nightly): 0.47
Change from Baseline in SE, Mean of Days 1 & 2: LS Means Diff vs placebo (5 mg nightly): 5.74%
Change from Baseline in SE, Mean of Days 1 & 2: Mean (5 mg nightly): 21.2%
Change from Baseline in SE, Mean of Days 14 & 15: LS Means Diff vs placebo (5 mg nightly): 5.76%
Change from Baseline in SE, Mean of Days 14 & 15: Mean (5 mg nightly): 21.0%
Change from Baseline in WASO, Mean of Days 1 & 2: LS Means Diff vs placebo (5 mg nightly): -11.3 min
Change from Baseline in WASO, Mean of Days 1 & 2: Mean (5 mg nightly): -55.6 min
Change from Baseline in WASO, Mean of Days 14 & 15: LS Means Diff vs placebo (5 mg nightly): -10.7 min
Change from Baseline in WASO, Mean of Days 14 & 15: Mean (5 mg nightly): -52.2 min
LPS, Days 1/2 compared to Days 14/15 (10 mg): further improvement in LPS over time
Change from Baseline in LPS, Mean of Days 1 & 2: Geometric Mean Ratio (compound A/placebo) (10 mg nightly): 0.54
Change from Baseline in LPS, Mean of Days 14 & 15: Geometric Mean Ratio (compound A /placebo) (10 mg nightly): 0.32
Change from Baseline in SE, Mean of Days 1 & 2: LS Means Diff vs placebo (10 mg nightly): 8.09%
Change from Baseline in SE, Mean of Days 1 & 2: Mean (10 mg nightly): 21.9%
Change from Baseline in SE, Mean of Days 14 & 15: LS Means Diff vs placebo (10 mg nightly): 7.78%
Change from Baseline in SE, Mean of Days 14 & 15: Mean (10 mg nightly): 21.7%
Change from Baseline in WASO, Mean of Days 1 & 2: LS Means Diff vs placebo (10 mg nightly): -19.8 min
Change from Baseline in WASO, Mean of Days 1 & 2: Mean (10 mg nightly): -56.7 min
Change from Baseline in WASO, Mean of Days 14 & 15: LS Means Diff vs placebo (10 mg nightly): -14.7 min
Change from Baseline in WASO, Mean of Days 14 & 15: Mean (10 mg nightly): -48.5 min
Change from Baseline in LPS, Mean of Days 1 & 2: Geometric Mean Ratio (compound A/placebo) (15 mg nightly): 0.52
Change from Baseline in LPS, Mean of Days 14 & 15: Geometric Mean Ratio (compound A /placebo) (15 mg nightly): 0.41
Change from Baseline in SE, Mean of Days 1 & 2: LS Means Diff vs placebo (15 mg nightly): 10.06%
Change from Baseline in SE, Mean of Days 1 & 2: Mean (15 mg nightly): 23.8%
Change from Baseline in SE, Mean of Days 14 & 15: LS Means Diff vs placebo (15 mg nightly): 7.89%
Change from Baseline in SE, Mean of Days 14 & 15: Mean (15 mg nightly): 21.2%
Change from Baseline in WASO, Mean of Days 1 & 2: LS Means Diff vs placebo (15 mg nightly): -29.3 min
Change from Baseline in WASO, Mean of Days 1 & 2: Mean (15 mg nightly): -66.1 min
Change from Baseline in WASO, Mean of Days 14 & 15: LS Means Diff vs placebo (15 mg nightly): -20.8 min
Change from Baseline in WASO, Mean of Days 14 & 15: Mean (15 mg nightly): -53.4 min
Change from Baseline in LPS, Mean of Days 1 & 2: Geometric Mean Ratio (compound A/placebo) (25 mg nightly): 0.39
Change from Baseline in LPS, Mean of Days 14 & 15: Geometric Mean Ratio (compound A /placebo) (25 mg nightly): 0.34
Change from Baseline in SE, Mean of Days 1 & 2: LS Means Diff vs placebo (25 mg nightly): 10.13%
Change from Baseline in SE, Mean of Days 1 & 2: Mean (25 mg nightly): 22.7%
Change from Baseline in SE, Mean of Days 14 & 15: LS Means Diff vs placebo (25 mg nightly): 8.87%
Change from Baseline in SE, Mean of Days 14 & 15: Mean (25 mg nightly): 21.4%
Change from Baseline in WASO, Mean of Days 1 & 2: LS Means Diff vs placebo (25 mg nightly): -25.8 min
Change from Baseline in WASO, Mean of Days 1 & 2: Mean (25 mg nightly): -62.3 min
Change from Baseline in WASO, Mean of Days 14 & 15: LS Means Diff vs placebo (25 mg nightly): -21.5 min
Change from Baseline in WASO, Mean of Days 14 & 15: Mean (25 mg nightly): -53.9 min
SE (B)-(A) Potential Habituation Effect: LS Means Diff vs placebo [1]: −3.3%
SE (B)-(A) Potential Habituation Effect: Mean [1]: −4.0%
WASO (B)-(A) Potential Habituation Effect: LS Means Diff vs placebo [1]: 13.2 min
WASO (B)-(A) Potential Habituation Effect: Mean [1]: 18.0 min
SE (B)-(A) Potential Habituation Effect: LS Means Diff vs placebo [2]: 0.3%
SE (B)-(A) Potential Habituation Effect: Mean [2]: −0.5%
WASO (B)-(A) Potential Habituation Effect: LS Means Diff vs placebo [2]: -2.9 min
WASO (B)-(A) Potential Habituation Effect: Mean [2]: 2.2 min
SE (B)-(A) Potential Habituation Effect: LS Means Diff vs placebo [3]: 1.0%
SE (B)-(A) Potential Habituation Effect: Mean [3]: 0.1%
WASO (B)-(A) Potential Habituation Effect: LS Means Diff vs placebo [3]: -2.9 min
WASO (B)-(A) Potential Habituation Effect: Mean [3]: 2.7 min
SE (B)-(A) Potential Habituation Effect: LS Means Diff vs placebo [4]: 0.3%
SE (B)-(A) Potential Habituation Effect: Mean [4]: −0.7%
WASO (B)-(A) Potential Habituation Effect: LS Means Diff vs placebo [4]: 2.8 min
WASO (B)-(A) Potential Habituation Effect: Mean [4]: 9.3 min
SE (B)-(A) Potential Habituation Effect: LS Means Diff vs placebo [5]: −1.3%
SE (B)-(A) Potential Habituation Effect: Mean [5]: −2.3%
WASO (B)-(A) Potential Habituation Effect: LS Means Diff vs placebo [5]: 5.2 min
WASO (B)-(A) Potential Habituation Effect: Mean [5]: 11.8 min
SE (B)-(A) Potential Habituation Effect: LS Means Diff vs placebo [6]: −1.1%
SE (B)-(A) Potential Habituation Effect: Mean [6]: −2.1%
WASO (B)-(A) Potential Habituation Effect: LS Means Diff vs placebo [6]: 2.7 min
WASO (B)-(A) Potential Habituation Effect: Mean [6]: 9.3 min
LPS (B)-(A) Potential Habituation Effect: Geometric Mean Ratio (compound A/placebo) (Days 14 & 15 vs Days 1 & 2, 1 mg nightly): 0.93
LPS (B)-(A) Potential Habituation Effect: Geometric Mean Ratio (compound A/placebo) (Days 14 & 15 vs Days 1 & 2, 2.5 mg nightly): 0.90
LPS (B)-(A) Potential Habituation Effect: Geometric Mean Ratio (compound A/placebo) (Days 14 & 15 vs Days 1 & 2, 5 mg nightly): 0.77
LPS (B)-(A) Potential Habituation Effect: Geometric Mean Ratio (compound A/placebo) (Days 14 & 15 vs Days 1 & 2, 10 mg nightly): 0.60
LPS (B)-(A) Potential Habituation Effect: Geometric Mean Ratio (compound A/placebo) (Days 14 & 15 vs Days 1 & 2, 15 mg nightly): 0.76
LPS (B)-(A) Potential Habituation Effect: Geometric Mean Ratio (compound A/placebo) (Days 14 & 15 vs Days 1 & 2, 25 mg nightly): 0.89
WASO, Days 1/2 compared to Days 14/15 (all doses): no statistical evidence of an increase or decrease in WASO
LPS geometric mean ratios vs placebo, significance (all other doses (2.5-25 mg), Mean of Days 1/2): evidence of statistical significance
WASO change from baseline vs placebo, significance (mean of Days 1/2, doses of 10 mg and above): statistically significant against placebo
WASO change from baseline vs placebo, significance (mean of Days 14/15, doses 15 mg and above): statistically significant against placebo
